Columns and labels:
Assay type in all cases: functional
[1] = test system: Rhizoctonia solani; experiment: Fungicidal activity against Rhizoctonia solani ET0007 assessed as mycelial growth inhibition at 25 mg/L after 1 day; conditions: ET0007, 24 h, read-out: GI
[2] = test system: Gaeumannomyces graminis; experiment: Fungicidal activity against Gaeumannomyces graminis MAFF305168 assessed as mycelial growth inhibition at 25 mg/L after 1 day; conditions: MAFF305168, 24 h, read-out: GI
[3] = test system: Rhynchosporium secalis; experiment: Fungicidal activity against Rhynchosporium secalis IFO-5290 assessed as mycelial growth inhibition at 25 mg/L after 14 days; conditions: IFO-5290, 336 h, read-out: GI
[4] = test system: Alternaria alternata; experiment: Fungicidal activity against Alternaria alternata APS-38 assessed as mycelial growth inhibition at 25 mg/L after 3 days; conditions: APS-38, 72 h, read-out: GI
[5] = test system: Microdochium nivale; experiment: Fungicidal activity against Microdochium nivale IFO-7432 assessed as mycelial growth inhibition at 25 mg/L after 3 days; conditions: IFO-7432, 72 h, read-out: GI
[6] = test system: Zymoseptoria tritici; experiment: Fungicidal activity against Zymoseptoria tritici S3 assessed as mycelial growth inhibition at 25 mg/L after 14 days; conditions: S3, 336 h, read-out: GI
[7] = test system: Cercospora beticola; experiment: Fungicidal activity against Cercospora beticola Be-2-6 assessed as mycelial growth inhibition at 25 mg/L after 7 days; conditions: Be-2-6, 168 h, read-out: GI
[8] = test system: Pyrenophora graminea; experiment: Fungicidal activity against Pyrenophora graminea IFO-7507 assessed as mycelial growth inhibition at 25 mg/L after 3 days; conditions: IFO-7507, 72 h, read-out: GI
[9] = test system: Fusarium graminearum; experiment: Fungicidal activity against Fusarium graminearum H3 assessed as mycelial growth inhibition at 25 mg/L after 3 days; conditions: H3, 72 h, read-out: GI

Compound | inhibition of growth at 25 µg/mL [1] [%] | inhibition of growth at 25 µg/mL [2] [%] | inhibition of growth at 25 µg/mL [3] [%] | inhibition of growth at 25 µg/mL [4] [%] | inhibition of growth at 25 µg/mL [5] [%] | inhibition of growth at 25 µg/mL [6] [%] | inhibition of growth at 25 µg/mL [7] [%] | inhibition of growth at 25 µg/mL [8] [%] | inhibition of growth at 25 µg/mL [9] [%]
CSCCC(=O)n1oc(C)cc1=O | 62 | 58 | 99 | 64 | 50 | 67 | 92 | 76 | 37
Cc1cc(=O)n(C(=O)/C=C/c2cccs2)o1 | 75 | 16 | 100 | 54 | 60 | 78 | 77 | 89 | 40
CCn1oc(C)cc1=O | 0 | 3 | 13 | 21 | 0 | 0 | 2 | 6 | 4
Cc1cc(=O)n(C(=O)C(C)c2ccccc2)o1 (configuration not stated) | 20 | 5 | 99 | 48 | 55 | 83 | 86 | 74 | 33
Cc1cc(=O)n(Cc2ccccc2)o1 | 10 | 0 | 0 | 9 | 4 | 6 | 4 | 46 | 6
Cc1cc(=O)n(C(=O)c2c(F)c(F)c(F)c(F)c2F)o1 | 5 | 0 | 100 | 60 | 36 | 56 | 90 | 87 | 22
Cc1cc(=O)n(C(=O)CCC(F)(F)F)o1 | 57 | 60 | 98 | 61 | 54 | 65 | 89 | 46 | 32
Cc1cc(C)c(C(=O)n2oc(C)cc2=O)c(C)c1 | 3 | 22 | 0 | 22 | 4 | 10 | 11 | 90 | 10
Cc1cc(=O)n(C(=O)/C=C/c2ccoc2)o1 | 90 | 72 | 100 | 60 | 68 | 53 | 91 | 96 | 44
Cc1cc(=O)n(C(=O)C#Cc2ccccc2)o1 | 17 | 3 | 98 | 72 | 41 | 83 | 88 | 73 | 23
CCCn1oc(C)cc1=O | 15 | 3 | 2 | 11 | 4 | 0 | 4 | 16 | 8
CC(=O)n1oc(C)cc1=O | 26 | 72 | 100 | 90 | 79 | 98 | 92 | 72 | 50
Cc1cc(=O)n(C(=O)C2(c3ccccc3)CC2(Cl)Cl)o1 (configuration not stated) | 46 | 9 | 99 | 50 | 58 | 69 | 85 | 89 | 32

From ChEMBL document CHEMBL3044528, “Potential new fungicides: N-acyl-5-methyl-3(2H)-isoxazolone derivatives” (2012)
